Target: cruzain (Trypanosoma cruzi, UniProt P25779)
Assay: fluorimetric Z-FR-AMC cleavage, initial rates
Assay type: biochemical

cruzain, sequence (P25779 123-337): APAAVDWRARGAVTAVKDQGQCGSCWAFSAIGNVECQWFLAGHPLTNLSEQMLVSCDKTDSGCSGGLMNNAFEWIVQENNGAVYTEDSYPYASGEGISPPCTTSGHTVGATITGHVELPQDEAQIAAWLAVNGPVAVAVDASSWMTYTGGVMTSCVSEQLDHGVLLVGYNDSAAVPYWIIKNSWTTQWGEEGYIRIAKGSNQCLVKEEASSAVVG

- IC50: 29.7 ± 9.16 nM
Compound: CC(C)C[C@H](NC(=O)[C@H]1O[C@@H]1C(=O)O)C(=O)NCCCCN=C(N)N [E-64, trans-Epoxysuccinyl-L-leucylamido(4-guanidino)butane, reference compound]
